A value given as a limit tells only on which side of the number the result lay.

Data set [1] addresses T1, Sodium/glucose cotransporter 2 (Homo sapiens, UniProt P31639).
T1 sequence (P31639 whole entry): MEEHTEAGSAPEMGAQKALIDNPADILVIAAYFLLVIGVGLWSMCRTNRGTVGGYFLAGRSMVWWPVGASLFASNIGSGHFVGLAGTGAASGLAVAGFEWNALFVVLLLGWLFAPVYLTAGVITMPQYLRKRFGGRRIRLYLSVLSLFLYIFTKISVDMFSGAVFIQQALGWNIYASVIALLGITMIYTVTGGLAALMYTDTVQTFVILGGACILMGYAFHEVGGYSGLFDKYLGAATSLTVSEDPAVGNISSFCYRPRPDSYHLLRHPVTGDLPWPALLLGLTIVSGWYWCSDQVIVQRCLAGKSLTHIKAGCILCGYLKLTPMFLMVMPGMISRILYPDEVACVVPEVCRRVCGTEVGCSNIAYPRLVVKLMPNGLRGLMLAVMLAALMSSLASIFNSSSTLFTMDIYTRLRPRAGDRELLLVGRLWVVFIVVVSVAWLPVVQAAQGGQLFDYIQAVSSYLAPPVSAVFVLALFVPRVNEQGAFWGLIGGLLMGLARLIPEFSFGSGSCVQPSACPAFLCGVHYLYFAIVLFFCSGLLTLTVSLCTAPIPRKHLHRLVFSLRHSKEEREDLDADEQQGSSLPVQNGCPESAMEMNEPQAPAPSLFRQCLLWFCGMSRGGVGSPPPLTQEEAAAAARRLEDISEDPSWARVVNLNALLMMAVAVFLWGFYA
Put plainly: Inhibition of SGLT2 (unknown origin).

A short description of data set [2]: Half life in human. Type of data set: ADME.
The target of data set [3] is Voltage-dependent calcium channel subunit alpha-2/delta-1 (Homo sapiens) (UniProt P54289). The data set can be described thus: Binding affinity to human alpha2delta1 Voltage-dependent calcium channel assessed as dissociation half life.
Data set [4] has as its target Voltage-dependent calcium channel subunit alpha-2/delta-2 (Homo sapiens) (UniProt Q9NY47).
Description: Binding affinity to human alpha2delta2 Voltage-dependent calcium channel assessed as dissociation half life

Chain of Voltage-dependent calcium channel subunit alpha-2/delta-1 (Homo sapiens) (P54289 25-956 limits assumed): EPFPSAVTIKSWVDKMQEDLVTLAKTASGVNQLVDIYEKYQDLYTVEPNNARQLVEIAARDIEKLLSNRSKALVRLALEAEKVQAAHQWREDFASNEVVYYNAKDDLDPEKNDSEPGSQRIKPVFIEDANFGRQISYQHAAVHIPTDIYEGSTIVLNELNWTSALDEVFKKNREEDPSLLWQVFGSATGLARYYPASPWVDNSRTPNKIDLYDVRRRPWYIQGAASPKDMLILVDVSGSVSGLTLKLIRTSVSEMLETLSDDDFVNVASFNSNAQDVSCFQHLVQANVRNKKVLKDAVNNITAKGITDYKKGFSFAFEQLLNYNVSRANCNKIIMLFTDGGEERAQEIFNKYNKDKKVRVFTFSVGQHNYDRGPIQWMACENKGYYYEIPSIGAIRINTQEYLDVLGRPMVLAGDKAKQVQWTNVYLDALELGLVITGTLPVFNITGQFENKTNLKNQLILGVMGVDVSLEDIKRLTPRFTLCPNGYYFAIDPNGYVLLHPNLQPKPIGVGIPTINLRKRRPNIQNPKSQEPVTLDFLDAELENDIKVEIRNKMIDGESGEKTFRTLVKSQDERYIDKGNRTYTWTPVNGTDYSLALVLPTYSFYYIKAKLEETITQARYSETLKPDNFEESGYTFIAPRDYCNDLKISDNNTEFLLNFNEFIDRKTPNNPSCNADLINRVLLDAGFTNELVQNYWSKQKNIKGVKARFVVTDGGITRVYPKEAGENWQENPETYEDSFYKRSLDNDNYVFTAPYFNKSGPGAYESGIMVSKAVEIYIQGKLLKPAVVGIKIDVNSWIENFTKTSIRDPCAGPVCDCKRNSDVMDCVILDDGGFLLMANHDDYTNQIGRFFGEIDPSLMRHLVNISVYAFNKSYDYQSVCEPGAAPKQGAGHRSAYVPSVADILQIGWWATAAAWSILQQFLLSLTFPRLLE
Chain of Voltage-dependent calcium channel subunit alpha-2/delta-1 (Homo sapiens) (P54289 957-1103 limits assumed): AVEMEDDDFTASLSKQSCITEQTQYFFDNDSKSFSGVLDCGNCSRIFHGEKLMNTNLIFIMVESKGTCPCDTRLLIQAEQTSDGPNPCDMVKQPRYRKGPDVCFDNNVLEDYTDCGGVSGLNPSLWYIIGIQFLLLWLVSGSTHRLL
Chain of Voltage-dependent calcium channel subunit alpha-2/delta-2 (Homo sapiens) (Q9NY47 19-1001 limits assumed): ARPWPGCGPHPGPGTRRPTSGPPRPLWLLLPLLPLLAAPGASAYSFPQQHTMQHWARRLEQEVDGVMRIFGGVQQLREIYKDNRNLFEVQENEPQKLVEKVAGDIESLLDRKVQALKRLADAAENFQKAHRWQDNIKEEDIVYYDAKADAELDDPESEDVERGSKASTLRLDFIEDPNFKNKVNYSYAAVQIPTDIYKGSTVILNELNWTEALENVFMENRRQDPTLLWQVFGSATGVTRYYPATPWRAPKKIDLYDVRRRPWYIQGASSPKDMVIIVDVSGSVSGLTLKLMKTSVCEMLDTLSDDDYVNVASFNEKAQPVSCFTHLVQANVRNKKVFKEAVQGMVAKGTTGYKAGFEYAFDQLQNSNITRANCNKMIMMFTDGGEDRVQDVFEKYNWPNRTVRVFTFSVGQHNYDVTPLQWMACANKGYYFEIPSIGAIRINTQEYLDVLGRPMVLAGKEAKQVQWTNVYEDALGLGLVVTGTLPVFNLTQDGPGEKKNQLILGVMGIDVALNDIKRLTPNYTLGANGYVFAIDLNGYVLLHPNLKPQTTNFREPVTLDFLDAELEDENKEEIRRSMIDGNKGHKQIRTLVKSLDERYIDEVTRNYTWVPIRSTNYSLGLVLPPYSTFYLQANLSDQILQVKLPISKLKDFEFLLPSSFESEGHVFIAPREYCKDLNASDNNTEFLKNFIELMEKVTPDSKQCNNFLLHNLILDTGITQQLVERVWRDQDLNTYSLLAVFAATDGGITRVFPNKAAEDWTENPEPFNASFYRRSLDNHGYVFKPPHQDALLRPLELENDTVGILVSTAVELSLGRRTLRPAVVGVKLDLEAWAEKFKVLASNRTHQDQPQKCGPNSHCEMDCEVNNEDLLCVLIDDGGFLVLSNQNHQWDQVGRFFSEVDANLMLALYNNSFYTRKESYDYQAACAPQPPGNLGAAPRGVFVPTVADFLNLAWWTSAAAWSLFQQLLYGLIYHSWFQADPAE
Chain of Voltage-dependent calcium channel subunit alpha-2/delta-2 (Homo sapiens) (Q9NY47 1002-1150 limits assumed): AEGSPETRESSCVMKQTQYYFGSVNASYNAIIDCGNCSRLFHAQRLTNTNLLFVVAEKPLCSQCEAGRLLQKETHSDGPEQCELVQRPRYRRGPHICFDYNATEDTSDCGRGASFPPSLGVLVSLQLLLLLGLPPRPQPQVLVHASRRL

What is called Ki is the equilibrium dissociation constant of an inhibitor or competing ligand from its target. The low end stands for tighter binding, the high end for weaker binding. Broadly, the half-life is how long it takes for the measured level to halve. Read a low half-life as rapid decline. As for `CCOC(=O)OC[C@H]1O[C@@H](Oc2nn(C(C)C)c(C)c2Cc2ccc(OC(C)C)cc2)[C@H](O)[C@@H](O)[C@@H]1O` [REMOGLIFLOZIN ETABONATE], in data set [1], the affinity, expressed as Ki, was 12.4 nM. For the same compound, in data set [2], the half-life is 2 h.
As for `CCC1=C[C@@H]2[C@H](C1)C[C@]2(CN)CC(=O)O`, in data set [3], the T1/2 is greater than 11 h.
Consider `CC(C)C[C@H](CN)CC(=O)O`, for which the T1/2 in data set [4] and in data set [3] was 1.5 h throughout.

Source of the values: ChEMBL document CHEMBL5226300, “Synthetic Approaches to the New Drugs Approved during 2019” (J Med Chem, 2021).
